Values of other authors, collected in PMC9788431, “Combination of Docking-Based and Pharmacophore-Based Virtual Screening Identifies Novel Agonists That Target the Urotensin Receptor” (Molecules, 2022).
Several values for one entry are separate records, joined by “and”; a condition that tells them apart may be missing. Equal values may be shown once.

Target: T1, UT receptor (Homo sapiens, UniProt Q9UKP6)
T1 construct: SNAP-tag; expressed in transfected cells; host or cells: 293A8 (HEK293A stably transfected with the UT receptor); inferred, the calcium-assay paragraph names no cells
T1 sequence (Q9UKP6 1-389): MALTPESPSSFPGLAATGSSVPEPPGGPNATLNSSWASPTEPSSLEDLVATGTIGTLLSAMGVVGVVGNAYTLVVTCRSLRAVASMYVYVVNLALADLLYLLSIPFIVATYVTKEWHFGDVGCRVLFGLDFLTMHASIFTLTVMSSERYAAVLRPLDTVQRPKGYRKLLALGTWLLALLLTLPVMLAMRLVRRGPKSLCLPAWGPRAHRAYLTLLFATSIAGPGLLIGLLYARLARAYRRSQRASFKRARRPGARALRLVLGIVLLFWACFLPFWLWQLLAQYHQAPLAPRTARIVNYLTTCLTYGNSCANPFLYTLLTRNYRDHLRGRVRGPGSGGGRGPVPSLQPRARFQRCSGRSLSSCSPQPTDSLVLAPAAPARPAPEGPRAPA
Set-up: method as in ChEMBL database and others
Details: antagonist; Table S1 benchmarking ligands; ref ChEMBL database and others; cited from earlier work

In the case of `O=C(N[C@H]1CCN(Cc2ccc(OC3CCNCC3)c(Br)c2)C1)c1ccc(Cl)c(Cl)c1` [CHEMBL495075], the IC50 is listed as 4 nM.

In the case of `COc1ccc([C@@H](CCCN(C)S(=O)(=O)c2cccs2)N2Cc3c(cccc3N3CCNCC3)C2=O)cc1OC` [CHEMBL565416], the IC50 is given as 410 nM.

For `COc1ccc([C@H](CCCNS(=O)(=O)c2cccs2)N2C(=O)c3cccc(N4CCN([C@H](C)c5ccccc5)CC4)c3C2=O)cc1OC` [CHEMBL565580], the IC50 is given as 260 nM.

For `COc1ccc([C@@H](CCCNS(=O)(=O)c2cccs2)N2C(=O)c3cccc(N4CCNCC4)c3C2=O)cc1OC` [CHEMBL566366], the IC50 is listed as 500 nM.

For `CCN1CCN(c2cccc3c2C(=O)N([C@H](CCCNS(=O)(=O)c2cccs2)c2ccc(OC)c(OC)c2)C3=O)CC1` [CHEMBL566433], the IC50 is given as 150 nM.

For `CCN1CCN(c2cccc3c2CN([C@H](CCCNC(=O)c2cccs2)c2ccc(OC)c(OC)c2)C3=O)CC1` [CHEMBL567075], the IC50 is given as 140 nM.

For `CCN1CCN(c2cccc3c2CN([C@H](CCCNS(=O)(=O)c2cccs2)c2ccc(OC)c(OC)c2)C3=O)CC1` [CHEMBL567713], the IC50 is given as 8 nM.

For `COc1ccc([C@@H](CCCNS(=O)(=O)c2cccs2)N2C(=O)c3cccc(N4CCN(C(C)C)CC4)c3C2=O)cc1OC` [CHEMBL567736], the IC50 is given as 150 nM.

For `COc1ccc([C@@H](CCCNS(=O)(=O)c2c(C)n[nH]c2C)N2C(=O)c3cccc(N4CCN([C@H](C)c5ccccc5)CC4)c3C2=O)cc1OC` [CHEMBL567759], the IC50 is given as 47 nM.

For `COc1ccc([C@@H](CCCNS(=O)(=O)c2cccs2)N2C(=O)c3cccc(N4CCN(C)CC4)c3C2=O)cc1OC` [CHEMBL567949], the IC50 is given as 220 nM.

In the case of `CCN1CCN(c2cccc3c2CN([C@H](CCCNCc2cccs2)c2ccc(OC)c(OC)c2)C3=O)CC1` [CHEMBL568123], the IC50 is given as 59 nM.

In the case of `COc1ccc([C@@H](CCCNS(=O)(=O)c2cccs2)N2C(=O)c3cccc(N4CCN([C@H](C)c5ccccc5)CC4)c3C2=O)cc1OC` [CHEMBL568165], the IC50 is given as 240 nM.

For `COc1ccc([C@@H](CCCNS(=O)(=O)c2cccs2)N2Cc3c(cccc3N3CCN(C(C)C)CC3)C2=O)cc1OC` [CHEMBL568637], the IC50 is listed as 53 nM.

For `COc1ccc([C@@H](CCCNC(=O)c2cnoc2C)N2C(=O)c3cccc(N4CCN([C@H](C)c5ccccc5)CC4)c3C2=O)cc1OC` [CHEMBL568764], the IC50 is given as 760 nM.

In the case of `CCN1CCN(c2cccc3c2CN([C@H](CCCN(C)S(=O)(=O)c2cccs2)c2ccc(OC)c(OC)c2)C3=O)CC1` [CHEMBL571535], the IC50 is given as 88 nM.

In the case of `COc1ccc([C@@H](CCCN(C)S(=O)(=O)c2cccs2)N2Cc3c(cccc3N3CCN(C4CCC4)CC3)C2=O)cc1OC` [CHEMBL571537], the IC50 is listed as 510 nM.

In the case of `COc1ccc([C@@H](CCCN(C)S(=O)(=O)c2cccs2)N2Cc3c(cccc3N3CCN(C(C)C)CC3)C2=O)cc1OC` [CHEMBL578203], the IC50 is given as 500 nM.

For `CCN1CCN(c2cccc3c2CN([C@H](CCCNS(=O)(=O)c2c[nH]cn2)c2ccc(OC)c(OC)c2)C3=O)CC1` [CHEMBL578207], the IC50 is given as 51 nM.

In the case of `COc1cc2c(cc1OC)C(CCc1cc(F)ccc1F)N(CCNC(=O)Nc1cc(C)nc3ccccc13)CC2` (centres unmarked) [CHEMBL1163360], the IC50 is given as 67 nM.

For `Cc1cc(NC(=O)NCCN2CCC(O)(Cc3ccccc3)CC2)c2ccccc2n1` [CHEMBL1164032], the IC50 is listed as 3.6 nM.

In the case of `COc1cc(Br)c(S(=O)(=O)Nc2ccc(Cl)c(O[C@@H]3CCN(C)C3)c2)cc1OC` [CHEMBL2348501], the IC50 is given as 43 nM.

In the case of `COc1cc(Br)c([S+]([O-])Cc2ccc(Cl)c(O[C@@H]3CCN(C)C3)c2)cc1OC` (some centres unmarked) [CHEMBL2348504], the IC50 is listed as 245 nM.

In the case of `COc1cc(Br)c(SCc2ccc(Cl)c(O[C@@H]3CCN(C)C3)c2)cc1OC` [CHEMBL2348505], the IC50 is listed as 440 nM.

For `COc1cc(Br)c(CNc2ccc(C(F)(F)F)c(O[C@H]3CCN(C)C3)c2)cc1OC` [CHEMBL2348511], the IC50 is listed as 191 nM.

In the case of `CN1CC[C@H](Oc2cc(NCc3ccccc3Br)ccc2C(F)(F)F)C1` [CHEMBL2348514], the IC50 is given as 821 nM.

For `CN(C)CCOc1cc(NCc2ccccc2C(F)(F)F)ccc1Cl` [CHEMBL2348515], the IC50 is listed as 520 nM and 765 nM.

For `COc1cccc(CNc2ccc(C(F)(F)F)c(O[C@H]3CCN(C)C3)c2)c1` [CHEMBL2348517], the IC50 is given as 691 nM.

In the case of `CN1CC[C@H](Oc2cc(NCc3c(Br)ccc4c3OCO4)ccc2C(F)(F)F)C1` [CHEMBL2348518], the IC50 is given as 620 nM.

In the case of `COc1cc(Br)c(S(=O)(=O)Nc2ccc(C(F)(F)F)c(OCCN(C)C)c2)cc1OC` [CHEMBL2348523], the IC50 is listed as 100 nM.

In the case of `COc1cc(Br)c(S(=O)(=O)Nc2ccc(C(F)(F)F)c(OCCN3CCN(C)CC3)c2)cc1OC` [CHEMBL2348527], the IC50 is listed as 840 nM.

For `CC(C)[C@H](NC(=O)[C@@H]1CSSC[C@H](NC(=O)[C@H](C)N)C(=O)N[C@@H](Cc2ccccc2)C(=O)N[C@@H]2Cc3c([nH]c4ccccc34)CN(C2=O)[C@@H](CCCCN)C(=O)N[C@@H](Cc2ccc(O)cc2)C(=O)N1)C(=O)O` [CHEMBL3104461], the IC50 is listed as 60 nM.

In the case of `CC(C)[C@H](NC(=O)[C@@H]1CSSC[C@H](NC(=O)[C@H](C)N)C(=O)N[C@@H](Cc2ccccc2)C(=O)N[C@@H](c2ccccc2)C(=O)N[C@@H](CCCCN)C(=O)N[C@@H](Cc2ccc(O)cc2)C(=O)N1)C(=O)O` [CHEMBL3104462], the IC50 is listed as 29.5 nM.

For `CC(C)[C@H](NC(=O)[C@@H]1CSSC[C@H](NC(=O)[C@H](C)N)C(=O)N[C@@H](Cc2ccccc2)C(=O)N[C@H](c2ccccc2)C(=O)N[C@@H](CCCCN)C(=O)N[C@@H](Cc2ccc(O)cc2)C(=O)N1)C(=O)O` [CHEMBL3104463], the IC50 is given as 27.5 nM.

In the case of `CC(C)[C@H](NC(=O)[C@@H]1CSSC[C@H](NC(=O)[C@H](C)N)C(=O)N[C@@H](Cc2ccccc2)C(=O)N2CCc3ccccc3[C@H]2C(=O)N[C@@H](CCCCN)C(=O)N[C@@H](Cc2ccc(O)cc2)C(=O)N1)C(=O)O` [CHEMBL3104464], the IC50 is given as 10 nM.

In the case of `CC(C)[C@H](NC(=O)[C@@H]1CSSC[C@H](NC(=O)[C@H](C)N)C(=O)N[C@@H](Cc2ccccc2)C(=O)N2CCc3ccccc3[C@@H]2C(=O)N[C@@H](CCCCN)C(=O)N[C@@H](Cc2ccc(O)cc2)C(=O)N1)C(=O)O` [CHEMBL3104465], the IC50 is listed as 21 nM.

For `CC(C)[C@H](NC(=O)[C@@H]1CSSC[C@H](NC(=O)[C@H](C)N)C(=O)N[C@@H](Cc2ccccc2)C(=O)N2Cc3ccccc3C[C@@H]2C(=O)N[C@@H](CCCCN)C(=O)N[C@@H](Cc2ccc(O)cc2)C(=O)N1)C(=O)O` [CHEMBL3104467], the IC50 is given as 88 nM.

In the case of `CC(C)[C@H](NC(=O)[C@@H]1CSSC[C@H](NC(=O)[C@H](C)N)C(=O)N[C@@H](Cc2ccccc2)C(=O)N[C@@H](Cc2c[nH]c3ccccc23)C(=O)N[C@@H](CCCCN)C(=O)N[C@@H](Cc2ccc(O)cc2)C(=O)N1)C(=O)O` [CHEMBL3104471], the IC50 is listed as 12 nM.

For `CC(C)[C@H](NC(=O)[C@@H]1CSSC[C@H](NC(=O)[C@H](C)N)C(=O)N[C@@H](Cc2ccccc2)C(=O)N[C@@H](Cc2cccc3ccccc23)C(=O)N[C@@H](CCCCN)C(=O)N[C@@H](Cc2ccc(O)cc2)C(=O)N1)C(=O)O` [CHEMBL3104637], the IC50 is given as 17 nM.

In the case of `CC(C)[C@H](NC(=O)[C@@H]1CSSC[C@H](NC(=O)[C@H](C)N)C(=O)N[C@@H](Cc2ccccc2)C(=O)N[C@H](Cc2cccc3ccccc23)C(=O)N[C@@H](CCCCN)C(=O)N[C@@H](Cc2ccc(O)cc2)C(=O)N1)C(=O)O` [CHEMBL3104638], the IC50 is listed as 46 nM.

In the case of `CC(C)[C@H](NC(=O)[C@@H]1CSSC[C@H](NC(=O)[C@H](C)N)C(=O)N[C@@H](Cc2ccccc2)C(=O)N[C@@H](Cc2ccc(I)cc2)C(=O)N[C@@H](CCCCN)C(=O)N[C@@H](Cc2ccc(O)cc2)C(=O)N1)C(=O)O` [CHEMBL3104639], the IC50 is listed as 58 nM.

In the case of `CC(C)[C@H](NC(=O)[C@@H]1CSSC[C@H](NC(=O)[C@H](C)N)C(=O)N[C@@H](Cc2ccccc2)C(=O)N[C@@H](C(c2ccccc2)c2ccccc2)C(=O)N[C@@H](CCCCN)C(=O)N[C@@H](Cc2ccc(O)cc2)C(=O)N1)C(=O)O` [CHEMBL3104643], the IC50 is given as 277 nM.

For `Cn1ccc2c(NC(=O)NCCN3CCC(O)(Cc4ccccc4)CC3)ccnc21` [CHEMBL3358667], the IC50 is given as 160 nM.

In the case of `O=C(NCCN1CCC(O)(Cc2ccccc2)CC1)Nc1ccnc2ccoc12` [CHEMBL3358671], the IC50 is given as 450 nM.

For `O=C(NCCN1CCC(O)(Cc2ccccc2)CC1)Nc1ccnc2sccc12` [CHEMBL3358673], the IC50 is given as 930 nM.

For `Cc1cc2nccc(NC(=O)NCCN3CCC(O)(Cc4ccccc4)CC3)c2s1` [CHEMBL3358674], the IC50 is given as 78 nM.

In the case of `Cc1cc(NC(=O)NCCN2CCC(O)(Cc3ccccc3)CC2)c2sccc2n1` [CHEMBL3358679], the IC50 is listed as 26 nM.

For `CCc1cc(NC(=O)NCCN2CCC(O)(Cc3ccccc3)CC2)c2sccc2n1` [CHEMBL3358680], the IC50 is given as 60 nM.

In the case of `Cc1ccccc1CC1(O)CCN(CCNC(=O)Nc2ccnc3ccsc23)CC1` [CHEMBL3358682], the IC50 is given as 20 nM.

For `Cc1cccc(CC2(O)CCN(CCNC(=O)Nc3ccnc4ccsc34)CC2)c1` [CHEMBL3358683], the IC50 is listed as 140 nM.

In the case of `Cc1ccc(CC2(O)CCN(CCNC(=O)Nc3ccnc4ccsc34)CC2)cc1` [CHEMBL3358684], the IC50 is listed as 190 nM.

For `O=C(NCCN1CCC(O)(Cc2ccccc2Br)CC1)Nc1ccnc2ccsc12` [CHEMBL3358685], the IC50 is given as 20 nM.

For `O=C(NCCN1CCC(O)(Cc2cccc(Br)c2)CC1)Nc1ccnc2ccsc12` [CHEMBL3358686], the IC50 is listed as 42 nM.

In the case of `O=C(NC1CCN(Cc2ccc(OC3CCNCC3)c(Br)c2)CC1)c1cc2cc(Cl)ccc2s1` [CHEMBL3896625], the IC50 is listed as 51 nM.

For `Cc1ccc(-c2ccc3cc(C(=O)NC4CCN(Cc5ccc(OC6CCNCC6)c(Br)c5)CC4)sc3c2)cc1` [CHEMBL3898238], the IC50 is given as 140 nM.

For `O=C(NC1CCN(Cc2ccc(OC3CCNCC3)c(Br)c2)CC1)c1cc2cc(C(F)(F)F)ccc2s1` [CHEMBL3906682], the IC50 is listed as 100 nM.

For `O=C(NC1CCN(Cc2ccc(OC3CCNCC3)c(Br)c2)CC1)c1cc2ccc(-c3ccc(Cl)cc3)cc2s1` [CHEMBL3907266], the IC50 is given as 140 nM.
